# Results from patent publication US20060121449A1, “Method for selection of compounds which inhibit clonal cell growth and use thereof” (priority 2002, published 2006).
# “Also recorded” adds a separate entry of the source.
# Tests used:
# [1] = system: spleen antibody producing cells against sheep red cells; settings: from the literature; cited from earlier work
# [2] = system: polyoma virus transformed BHK21/c13 cells, clone S100T1; experiment: Clonal test: clonal growth of S100T1 cells in soft agar (Exp 2, 4, 6, 15, 16); format: cell-based, hamster; settings: for Clonal growth: Exp 15, plate read the 5th day; for Significance of results: Exp 16, read after 14 days, ca. 223 μM; for Colony inhibiting activity for dosage within a range that might be therapeutic: Exp 16, about 40000 S100T1 cells/well; for Effect on clonal growth at 500 μM: DMSO toxicity might interfere
# Experimental: The clonal test comprises: • 1. seeding cells in soft agar optionally containing growth factor(s); • 2. handling or incubation of special gels (e.g. ultra low gelling temperature agarose), including the production of cell density gradients. • 3. incubating in suitable temperature and atmosphere and; • 4. regular monitoring of the cells and development of clones.
# The clonal test can be directed in fluid medium or in soft agar medium. Usually only transformed cells will form clones in soft agar.
# After seeding and mixing, the tubes were placed in the refrigerator for about 1 hour to consolidate the ultra low melting point agarose.
# 120000 S100T1 cells of a polyoma virus transformed BHK21/c13 cell line, were seeded in 1 ml soft agar medium in Falcon 50 ml centrifuge tubes. […] On the top of the agar layer 0.5 ml fluid medium was added.
# Agar cultures were prepared in wells of 24 well Falcon tissue culture plate. […] Insulin (Actrapid, Novo) was added in a concentration of 0.1 i.u./ml to BHK21/c13 cell cultures only.
# The cells were all single cells. Each well received 32000 cells (Table 4). Plate: 24 wells Falcon tissue culture plate received a bottom layer composed as in Table 3:
# The cells were all single cells.
# The wells contained two layers, each of 0.3 ml agar.
# The agarose was added to double distilled water and solved by heating in micro oven.
# [3] = system: polyoma virus transformed BHK21/c13 cells, line S100T1; experiment: Collocation inhibition test: clonal growth in sparsely and densely seeded areas of a cell density gradient of S100T1 cells in soft agar (Exp 13, 17, 19-26); settings: for Clonal growth, H: high density area of cell gradient, High / Clonal growth, L: low density area of cell gradient, High / Clonal growth, L low density area of cell gradient, High: high concentration; for Compounds with significant inhibition of clonal growth of sparsely seeded cells: Exp 24, 180000 S100T1 cells/well; for Clonal growth, L low density area of cell gradient, High / Clonal growth, L low density area of cell gradient, Low / Effect on cell cloning in soft agar: preliminary results; for Clonal growth, L low density area of cell gradient, High / Clonal growth, L low density area of cell gradient, Low: Exp 13-18, 21-26; for Effect on cell cloning in soft agar: in words;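 for Clonal growth, L low density area of cell gradient, High: grades rise with clonal growth and minus or plus-minus means none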;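 for Clonal growth, L low density area of cell gradient, Low: grades rise with clonal growth and minus or plus-minus means none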;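 for all read-outs here: soft agar cultures in 24-well plates with a cell density gradient in the top layer, compounds applied from DMSO stocks, clonal growth scored in sparse versus dense areas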
# [4] = system: BHK21/c13 (normal baby hamster kidney cells); settings: Tjøtta E. (1968); cited from earlier work
# [5] = Exp 15, 5th day, Low conc., μM in wells: No 1 (4-OH—OPB) 2, 2 (Colchicine) 0.01, 3 (Diphenylhydantoin) 10, 4 (Podophyllotoxin) 0.03, 5 (Piroxicam) 5, 6 (Diclofenak) 10, 7 (Ibuprofen) 100, 8 (Naproxen) 50, 9 (Acetylsalicylic acid) 100, ” = as line above
# [6] = High conc., μM in wells: No 1 (4-OH—OPB) 20, 2 (Colchicine) 0.1, 3 (Diphenylhydantoin) 100, 4 (Podophyllotoxin) 0.3, 5 (Piroxicam) 50, 6 (Diclofenak) 100, 7 (Ibuprofen) 1000, 8 (Naproxen) 500, 9 (Acetylsalicylic acid) 1000
# [7] = 4-OH-OPB analogues, S100T1 in soft agar
# [8] = 4-OH-OPB analogues, S100T1 in soft agar, medium concentration
# [9] = Experiment 24, H: area with high cell density, High concentration, 48 hours
# [10] = Experiment 24, H: area with high cell density, Low concentration, 48 hours
# [11] = Experiment 24, H: area with high cell density, Medium concentration, 48 hours
# [12] = Experiment 24, L: area with low cell density, High concentration, 48 hours
# [13] = Experiment 24, L: area with low cell density, Low concentration, 48 hours
# [14] = Experiment 24, L: area with low cell density, Medium concentration, 48 hours
# [15] = Summary Table 3 of analogue tests (experiments 22-25), H (high cell density), High concentration
# [16] = Summary Table 3 of analogue tests (experiments 22-25), H (high cell density), Low concentration
# [17] = Summary Table 3 of analogue tests (experiments 22-25), H (high cell density), Medium concentration
# [18] = Summary Table 3 of analogue tests (experiments 22-25), L (low cell density), High concentration
# [19] = Summary Table 3 of analogue tests (experiments 22-25), L (low cell density), Low concentration
# [20] = Summary Table 3 of analogue tests (experiments 22-25), L (low cell density), Medium concentration
# [21] = Exp 15, 32000 S100T1 cells/well
compound,measurement,setting,value
CN(C)N [1-1-dimethylhydrazine],Effect on development of plaques in Jerne's test,[1],enhances development of plaques
"Cc1ccc(C2(O)C(=O)N(c3ccccc3)N(c3ccccc3)C2=O)cc1 [#8, 1,2-diphenyl-4-hydroxy-4-(4-methylphenyl)-3,5-pyrazolidinedione]",Significance,[2]; [5],”
same,Clonal growth,[2]; [6],−
same,"Clonal growth, H: high density area of cell gradient, High",[3]; [7],++
same,"Clonal growth, L: low density area of cell gradient, High",[3]; [7],+
same,"Clonal growth, H: high density area of cell gradient, Medium",[3]; [8],++
same,Compounds with significant inhibition of clonal growth of sparsely seeded cells,[3],None
same,Clonal growth,[3]; [9],+(+)
same,Clonal growth,[3]; [10],++
same,Clonal growth,[3]; [11],++
same,Clonal growth,[3]; [12],+(+)
same,Clonal growth,[3]; [13],+
same,Clonal growth,[3]; [14],+(+)
same,Clonal growth,[3]; [15],++
same,Clonal growth,[3]; [16],+(+)
same,Clonal growth,[3]; [17],++
same,Clonal growth,[3]; [18],+
same,Clonal growth,[3]; [19],+(+)
same,Clonal growth,[3]; [20],+(+)
"O=C1N(c2ccccc2)N(c2ccccc2)C(=O)C1(O)Cc1ccccc1 [#9, 4-benzyl-1,2-diphenyl-4-hydroxy-3,5-pyrazolidinedione]",Significance,[2]; [5],”
same,Clonal growth,[2]; [6],−
same,Clonal growth,"[2]; Low conc., μM in wells: No 1 (4-OH—OPB) 2, 2 (Colchicine) 0.01, 3 (Diphenylhydantoin) 10, 4 (Podophyllotoxin) 0.03, 5 (Piroxicam) 5, 6 (Diclofenak) 10, 7 (Ibuprofen) 100, 8 (Naproxen) 50, 9 (Acetylsalicylic acid) 100",+
same,"Clonal growth, H: high density area of cell gradient, High",[3]; [7],++
same,"Clonal growth, L: low density area of cell gradient, High",[3]; [7],+
same,"Clonal growth, H: high density area of cell gradient, Low","[3]; 4-OH-OPB analogues, S100T1 in soft agar, low concentration",++(+)
same,"Clonal growth, H: high density area of cell gradient, Medium",[3]; [8],+++
same,"Clonal growth, L: low density area of cell gradient, Medium",[3]; [8],+
same,Compounds with significant inhibition of clonal growth of sparsely seeded cells,[3],None
same,Clonal growth,[3]; [9],++
same,Clonal growth,[3]; [10],++(+)
same,Clonal growth,[3]; [11],+++
same,Clonal growth,[3]; [12],+
same,Clonal growth,[3]; [13],+(+)
same,Clonal growth,[3]; [14],+
same,Clonal growth,[3]; [15],++
same,Clonal growth,[3]; [16],++(+)
same,Clonal growth,[3]; [17],+++
same,Clonal growth,[3]; [18],+
same,Clonal growth,[3]; [19],+(+)
same,Clonal growth,[3]; [20],+
CC(=O)Oc1ccccc1C(=O)O [Acetylsalicylic acid],Effect on clonal growth at 100 μM,[2]; [21],"possibly inhibited significantly, but not completely"
same,Effect on clonal growth at 1000 μM,"[2]; Exp 15, 32000 S100T1 cells/well, 30 μl DMSO in the well might be toxic",the inhibition is complete
same,Significance of results,[2]; Acetylsalicylic acid No 10,probable
same,Colony inhibiting activity for dosage within a range that might be therapeutic,[2],probably had a colony inhibiting activity
same,Significance,"[2]; Exp 16 day 14, Acetylsalicylic acid No 10, 215 μM",probable
same,Growth,"[2]; Exp 16 day 14, Acetylsalicylic acid No 10, 215 μM in wells",(+))
same,Growth,"[2]; Exp 16 day 14, Acetylsalicylic acid No 10, 464 μM in wells",(+))
same,Significance,"[2]; Exp 16 day 14, Acetylsalicylic acid No 10, 464 μM, doubtful because the solvent DMSO might be inhibiting",doubtful*
same,Significance,"[2]; Exp 16 day 21, Acetylsalicylic acid No 10, 215 μM",possible
same,Growth,"[2]; Exp 16 day 21, Acetylsalicylic acid No 10, 215 μM in wells",(+)
same,Growth,"[2]; Exp 16 day 21, Acetylsalicylic acid No 10, 464 μM in wells",(+))
same,Significance,"[2]; Exp 16 day 21, Acetylsalicylic acid No 10, 464 μM, *see conclusion (DMSO)",doubtful*
same,"Anti-clonal effect, summary of Exp 15",[2]; S100T1 in soft agar,showed possible clonal inhibition at low
same,"Clonal growth, L low density area of cell gradient, High",[3],((+))
same,"Clonal growth, L low density area of cell gradient, Low",[3]; low concentration,(+)
same,Effect on cell cloning in soft agar,[3],Possible inhibition of clonal growth
"O=C(O)Cc1ccccc1Nc1c(Cl)cccc1Cl [Diclofenac, reference compound]",Effect on clonal growth at 10 μM,[2]; [21],probable significant increase in clonal growth
same,Effect on clonal growth at 10-100 μM,[2]; [21],no significant inhibition
same,"Anti-clonal effect, summary of Exp 15",[2]; S100T1 in soft agar,increased clonal growth at low concentration
same,"Clonal growth, L low density area of cell gradient, High",[3],++
same,"Clonal growth, L low density area of cell gradient, Low",[3]; low concentration,++(+)
same,Effect on cell cloning in soft agar,[3],A possible increase of clonal growth
COc1ccc2cc([C@H](C)C(=O)O)ccc2c1 [Naproxen],Effect on clonal growth at 500 μM,[2]; [21],inhibited significantly
same,Effect on clonal growth at 500 μM,"[2]; Exp 15, 32000 S100T1 cells/well, listed as Naproxea",probably inhibited significantly
same,Significance of results,[2]; Naproxen No 9,possible
same,Colony inhibiting activity for dosage within a range that might be therapeutic,[2],probably had a colony inhibiting activity; also recorded: the same activity possibly existed
same,Significance,"[2]; Exp 16 day 14, Naproxen No 9, 108 μM",doubtful
same,Growth,"[2]; Exp 16 day 14, Naproxen No 9, 108 μM in wells",(+
same,Significance,"[2]; Exp 16 day 14, Naproxen No 9, 232 μM",possible*
same,Growth,"[2]; Exp 16 day 14, Naproxen No 9, 232 μM in wells",(+)
same,Significance,"[2]; Exp 16 day 21, Naproxen No 9, 108 μM",doubtful
same,Growth,"[2]; Exp 16 day 21, Naproxen No 9, 108 μM in wells",(+
same,Significance,"[2]; Exp 16 day 21, Naproxen No 9, 232 μM",possible*
same,Growth,"[2]; Exp 16 day 21, Naproxen No 9, 232 μM in wells",(+)
same,"Anti-clonal effect, summary of Exp 15",[2]; S100T1 in soft agar,showed possible clonal inhibition at low
same,"Anti-clonal effect, summary of Exp 16",[2]; S100T1 in soft agar,Ibuprofen and Naproxen possibly inhibited and Acetyl
same,Effect on cell cloning in soft agar,[3],Clonal inhibition possible
CN1C(C(=O)Nc2ccccn2)=C(O)c2ccccc2S1(=O)=O [Piroxicam],Effect on clonal growth at 50 μM,[2]; [21],inhibited doubtfully; also recorded: possibly inhibited significantly
same,Effect on clonal growth at 5-50 μM,[2]; [21],did not inhibit clonal growth significantly
same,"Anti-clonal effect, summary of Exp 15",[2]; S100T1 in soft agar,"Piroxicam inhibited less, but similarly"
same,"Clonal growth, L low density area of cell gradient, High",[3],+
same,"Clonal growth, L low density area of cell gradient, Low",[3]; low concentration,++
same,Effect on cell cloning in soft agar,[3],Clonal inhibition possible
"Insulin: Insulin Actrapid (Novo), 0.1 i.u./ml, growth factor",Stimulation of clonal growth in soft agar culture,[4],"stimulate clonal growth of normal, but not transformed cells"
